In ChEMBL document CHEMBL2074189, “Functional expression cloning and characterization of the hepatocyte Na+/bile acid cotransport system” (Proc Natl Acad Sci U S A, 1991):

Assays:
Format in all cases: functional, cell-based
Details in all cases: oocyte
[1] = biological target: T1, Hepatic sodium/bile acid cotransporter (Rattus norvegicus, UniProt P26435); assay: TP_TRANSPORTER: inhibition of Taurocholate uptake (Taurochorate: 17 uM, TCDC: 100 uM) in Xenopus laevis oocytes
T1 sequence (P26435 whole entry): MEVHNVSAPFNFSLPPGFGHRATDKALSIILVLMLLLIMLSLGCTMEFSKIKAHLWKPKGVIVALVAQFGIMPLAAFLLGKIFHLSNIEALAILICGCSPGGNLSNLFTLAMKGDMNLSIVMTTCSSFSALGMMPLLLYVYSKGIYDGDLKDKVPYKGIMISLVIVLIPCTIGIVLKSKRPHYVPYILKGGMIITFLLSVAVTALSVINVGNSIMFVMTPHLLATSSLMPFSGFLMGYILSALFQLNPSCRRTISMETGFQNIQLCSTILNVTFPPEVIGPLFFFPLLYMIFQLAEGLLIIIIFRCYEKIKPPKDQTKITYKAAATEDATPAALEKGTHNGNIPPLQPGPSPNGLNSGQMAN

[2] = biological target: T1, Hepatic sodium/bile acid cotransporter; assay: TP_TRANSPORTER: inhibition of Taurocholate uptake (Taurochorate: 17 uM, Bumetanide: 500 uM) in Xenopus laevis oocytes
[3] = biological target: T1, Hepatic sodium/bile acid cotransporter; assay: TP_TRANSPORTER: inhibition of Taurocholate uptake (Taurochorate: 17 uM, BSP: 100 uM) in Xenopus laevis oocytes
[4] = biological target: T1, Hepatic sodium/bile acid cotransporter; assay: TP_TRANSPORTER: inhibition of Taurocholate uptake (Taurochorate: 17 uM, Probenecid: 1000 uM) in Xenopus laevis oocytes

In the case of `C[C@H](CCC(=O)NCCS(=O)(=O)O)[C@H]1CC[C@H]2[C@@H]3[C@H](O)C[C@@H]4C[C@H](O)CC[C@]4(C)[C@H]3CC[C@]12C` [TAUROCHENODEOXYCHOLATE], the Activity [1] is reported as “inhibitor [(at a rough estimate) 15 % of control]”.

With `CCCCNc1cc(C(=O)O)cc(S(N)(=O)=O)c1Oc1ccccc1` [BUMETANIDE] the Activity [2] was “inhibitor [(at a rough estimate) 50 % of control]”.

In the case of `O=C1OC(c2ccc(O)c(S(=O)(=O)[O-])c2)(c2ccc(O)c(S(=O)(=O)[O-])c2)c2c(Br)c(Br)c(Br)c(Br)c21.[Na+].[Na+]` [SULFOBROMOPHTHALEIN SODIUM], the Activity [3] is reported as “inhibitor [(at a rough estimate) 25 % of control]”.

For `CCCN(CCC)S(=O)(=O)c1ccc(C(=O)O)cc1` [PROBENECID], the Activity [4] was “inhibitor [(at a rough estimate) 70 % of control]”.
